# In patent EP4745117A1, “NOVEL INDENONE DERIVATIVE AND USE THEREOF” (Amyloid Solution Inc., priority 2023, dated 2025):
# What was measured:
# Aβ1-42 = biological target: T1, Aβ1-42 (Homo sapiens, UniProt P05067); assay: Amyloid-beta disaggregation test by Thioflavin-T analysis; format: biochemical; settings: for EC50: Aβ1-42 50 µM aggregated 24 hours, then compound 0 - 500 µM for 48 hours at 37 °C, concentration disaggregating 50 % of aggregates vs control, read-out: EC50 (µM) Aβ; for disaggregation effect for amyloid-beta protein aggregates: statement in words summarising the Thioflavin-T results
# T1 construct: dissolving Aβ1-42 or Tau-RD3 (Tau repeat domain 3) monomers in DMSO
# T1 sequence (P05067 672-713 limits assumed): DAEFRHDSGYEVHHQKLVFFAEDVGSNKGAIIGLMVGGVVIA
# Method: (§1) Each compound was dissolved in DMSO to a concentration of 10 mM. Then, the compounds were diluted with 6 % DMSO (in DW) for use.
# (§2) Amyloid-beta and tau solutions were prepared by dissolving Aβ1-42 or Tau-RD3 (Tau repeat domain 3) monomers in DMSO to a concentration of 10 mM. Then, the solutions were diluted to 100 µM with DW and stored on ice.
# (§3) Meanwhile, Thioflavin-T was dissolved in 50 mM glycine buffer (pH 8.5) to a concentration of 5 mM. Then, the solution was diluted to 5 µM with 50 mM glycine buffer (pH 8.5) and stored in the dark, protected from light.
# (§4) The amyloid-beta and tau solutions prepared in Example 1.1 were each placed in 1.5 mL microcentrifuge tubes to a concentration of 50 µM or 35 µM, respectively, and then reacted at 37 °C for 24 hours.
# (§5) To each 1.5 mL microcentrifuge tube in which the amyloid-beta and tau aggregation was complete, the compounds were added at concentrations ranging from 500 µM down to 0 µM by serial dilution, and then further reacted at 37 °C for 48 hours.
# (§6) 25 µL of each completed reaction solution was added to each well of a 96-well fluorescence analysis plate, and 75 µL of the Thioflavin-T solution was added to each well. After reacting for 5 minutes at room temperature in the dark, the fluorescence value was measured at 450 nm (excitation) and 485 nm (emission) using a multi-mode microplate reader.
# (§7) The fluorescence value of the group (control group) treated with only amyloid-beta or tau and aggregated for 72 hours was designated as 100 %. The fluorescence values measured after treating the amyloid-beta and tau aggregates (formed by reacting for 24 hours) with each compound by concentration and reacting for an additional 48 hours were converted to relative values.
# [1] = biological target: Tau-RD3 (Tau repeat domain 3) (Homo sapiens, UniProt P10636); assay: Tau disaggregation test by Thioflavin-T analysis; format: biochemical; settings: for EC50: Tau-RD3 35 µM aggregated 24 hours, then compound 0 - 500 µM for 48 hours at 37 °C, concentration disaggregating 50 % of aggregates vs control, read-out: EC50 (µM) Tau; for disaggregation effect for tau protein aggregates: statement in words summarising the Thioflavin-T results
# Sequence of Tau-RD3 (Tau repeat domain 3) (P10636 623-653 limits assumed): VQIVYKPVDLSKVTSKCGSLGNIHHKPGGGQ
# Method: as §1, §2, §3, §4, §5, §6, §7
Compound,EC50 (Aβ1-42),disaggregation effect for amyloid-beta protein aggregates (Aβ1-42),EC50 [1],disaggregation effect for tau protein aggregates [1]
"O=C1C(c2cncs2)=C(c2cncs2)c2ccc(OCCCc3ccccc3)cc21 [Compound 83, 6-(3-phenylpropoxy)-2,3-di(thiazol-5-yl)-1H-inden-1-one]",< 20 µM,remarkably excellent disaggregation effect,< 20 µM,remarkably excellent disaggregation effect
"O=C1C(c2ccccc2)=C(c2ccc(N3CCOCC3)cc2)c2ccccc21 [Compound 14, 3-(4-morpholinophenyl)-2-phenyl-1H-inden-1-one]",< 20 µM,–,> 250 µM,–
"COc1cccc(OC)c1C1=C(c2cccnc2)C(=O)c2cc(O)ccc21 [Compound 45-8, 3-(2,6-dimethoxyphenyl)-6-hydroxy-2-(pyridin-3-yl)-1H-inden-1-one]",100 to 250 µM,–,> 250 µM,–
"Cc1ncsc1C1=C(c2cccnc2)C(=O)c2cc(OCCO)ccc21 [Compound 36, 6-(2-hydroxyethoxy)-3-(4-methylthiazol-5-yl)-2-(pyridin-3-yl)-1H-inden-1-one]",100 to 250 µM,–,20 to 100 µM,–
"COc1cccc(OC)c1C1=C(c2cccnc2)C(=O)c2cc(OCCCc3ccccc3)ccc21 [Compound 45, 3-(2,6-dimethoxyphenyl)-6-(3-phenylpropoxy)-2-(pyridin-3-yl)-1H-inden-1-one]",< 20 µM,–,100 to 250 µM,–
"Cc1cc(N2CCN(C)CC2)cc2c1C(c1ccccc1)=C(c1ccccc1)C2=O [Compound 71, 4-methyl-6-(4-methylpiperazin-1-yl)-2,3-diphenyl-1H-inden-1-one]",20 to 100 µM,–,100 to 250 µM,–
"Cc1ncsc1C1=C(c2cccnc2)C(=O)c2cc(SCCCc3ccccc3)ccc21 [Compound 57, 3-(4-methylthiazol-5-yl)-6-((3-phenylpropyl)thio)-2-(pyridin-3-yl)-1H-inden-1-one]",< 20 µM,remarkably excellent disaggregation effect,< 20 µM,remarkably excellent disaggregation effect
"Cc1ncsc1C1=C(c2cn[nH]c2)C(=O)c2cc(OCCCc3ccccc3)ccc21 [Compound 27, 3-(4-methylthiazol-5-yl)-6-(3-phenylpropoxy)-2-(1H-pyrazol-4-yl)-1H-inden-1-one]",< 20 µM,remarkably excellent disaggregation effect,< 20 µM,remarkably excellent disaggregation effect
"Cc1ncsc1C1=C(c2cccc(CN3CCN(C)CC3)c2)C(=O)c2ccccc21 [Compound 88, 2-(3-((4-methylpiperazin-1-yl)methyl)phenyl)-3-(4-methylthiazol-5-yl)-1H-inden-1-one]",< 20 µM,–,20 to 100 µM,–
"Cc1ncsc1C1=C(c2cnccn2)C(=O)c2cc(O)ccc21 [Compound 41-4, 6-hydroxy-3-(4-methylthiazol-5-yl)-2-(pyrazin-2-yl)-1H-inden-1-one]",> 250 µM,–,> 250 µM,–
"O=C1C(c2cncs2)=C(c2cncs2)c2ccc(O)cc21 [Compound 83-6, 6-hydroxy-2,3-di(thiazol-5-yl)-1H-inden-1-one]",> 250 µM,–,100 to 250 µM,–
"Cc1ncsc1C1=C(c2cccnc2)C(=O)c2cc(NCCO)ccc21 [Compound 53, 6-((2-hydroxyethyl)amino)-3-(4-methylthiazol-5-yl)-2-(pyridin-3-yl)-1H-inden-1-one]",> 250 µM,–,> 250 µM,–
"COc1ccccc1C1=C(c2cccnc2)C(=O)c2cc(OCCCc3ccccc3)ccc21 [Compound 44, 3-(2-methoxyphenyl)-6-(3-phenylpropoxy)-2-(pyridin-3-yl)-1H-inden-1-one]",< 20 µM,–,> 250 µM,–
"COc1ccc2c(c1)C(=O)C(c1cccnc1)=C2c1cnn(C)c1 [Compound 42-6, 6-methoxy-3-(1-methyl-1H-pyrazol-4-yl)-2-(pyridin-3-yl)-1H-inden-1-one]",20 to 100 µM,–,20 to 100 µM,–
"Cc1ncsc1C1=C(c2cnn(C)n2)C(=O)c2cc(OCCCc3ccccc3)ccc21 [Compound 33, 2-(2-methyl-2H-1,2,3-triazol-4-yl)-3-(4-methylthiazol-5-yl)-6-(3-phenylpropoxy)-1H-inden-1-one]",< 20 µM,–,< 20 µM,–
"Cc1ncsc1C1=C(c2cccnc2)C(=O)c2cc(NC3CCN(C)CC3)ccc21 [Compound 51, 6-((1-methylpiperidin-4-yl)amino)-3-(4-methylthiazol-5-yl)-2-(pyridin-3-yl)-1H-inden-1-one]",< 20 µM,–,20 to 100 µM,–
"O=C1C(c2cccnc2)=C(c2cn[nH]c2)c2ccc(OCCCc3ccccc3)cc21 [Compound 43, 6-(3-phenylpropoxy)-3-(1H-pyrazol-4-yl)-2-(pyridin-3-yl)-1H-inden-1-one]",> 250 µM,–,> 250 µM,–

Compound,EC50 (Aβ1-42),disaggregation effect for amyloid-beta protein aggregates (Aβ1-42),EC50 [1],disaggregation effect for tau protein aggregates [1]
"Cc1scnc1C1=C(c2cccnc2)C(=O)c2cc(OCCCc3ccncc3)ccc21 [Compound 23, 3-(5-methylthiazol-4-yl)-2-(pyridin-3-yl)-6-(3-(pyridin-4-yl)propoxy)-1H-inden-1-one]",< 20 µM,remarkably excellent disaggregation effect,< 20 µM,remarkably excellent disaggregation effect
"O=C1C(c2ccccc2)=C(c2ccccc2)c2ccc(N3CCOCC3)cc21 [Compound 12, 6-morpholino-2,3-diphenyl-1H-inden-1-one]",< 20 µM,–,> 250 µM,–
"COCCOc1ccc2c(c1)C(=O)C(c1cccnc1)=C2c1scnc1C [Compound 37, 6-(2-methoxyethoxy)-3-(4-methylthiazol-5-yl)-2-(pyridin-3-yl)-1H-inden-1-one]",20 to 100 µM,–,20 to 100 µM,–
"O=C1C(Br)=C(c2ccccc2)c2ccccc21 [Compound 6-2, 2-bromo-3-phenyl-1H-inden-1-one]",20 to 100 µM,–,< 20 µM,–
"Cc1ncsc1C1=C(c2cn(C)nn2)C(=O)c2cc(OCCCc3ccccc3)ccc21 [Compound 32, 2-(1-methyl-1H-1,2,3-triazol-4-yl)-3-(4-methylthiazol-5-yl)-6-(3-phenylpropoxy)-1H-inden-1-one]",< 20 µM,–,< 20 µM,–
"Cc1ncsc1C1=C(c2scnc2C)c2ccc(OCCCc3ccccc3)cc2C1=O [Compound 77, 2,3-bis(4-methylthiazol-5-yl)-6-(3-phenylpropoxy)-1H-inden-1-one]",< 20 µM,–,< 20 µM,–
"CC(=O)Oc1ccc2c(c1)C(=O)C(Br)=C2c1ccn(C)n1 [Compound 24, 2-bromo-3-(1-methyl-1H-pyrazol-3-yl)-1-oxo-1H-inden-6-yl acetate]",> 250 µM,–,< 20 µM,–
"O=C1C(N2CCOCC2)=C(c2ccccc2)c2ccccc21 [Compound 8, 2-morpholino-3-phenyl-1H-inden-1-one]",100 to 250 µM,–,20 to 100 µM,–
"Cc1ncsc1C1=C(c2cccnc2)C(=O)c2cc(O)ccc21 [Compound 35, 6-hydroxy-3-(4-methylthiazol-5-yl)-2-(pyridin-3-yl)-1H-inden-1-one]",20 to 100 µM,–,20 to 100 µM,–
"Cc1ncsc1C1=C(c2ccccn2)C(=O)c2cc(O)ccc21 [Compound 40-4, 6-hydroxy-3-(4-methylthiazol-5-yl)-2-(pyridin-2-yl)-1H-inden-1-one]",> 250 µM,–,> 250 µM,–
"Nc1ccc2c(c1)C(=O)C(c1ccccc1)=C2c1ccccc1 [Compound 68, 6-amino-2,3-diphenyl-1H-inden-1-one]",> 250 µM,–,> 250 µM,–
"Cc1ncsc1C1=C(c2ccc(CN3CCN(C)CC3)cc2)C(=O)c2ccccc21 [Compound 86, 2-(4-((4-methylpiperazin-1-yl)methyl)phenyl)-3-(4-methylthiazol-5-yl)-1H-inden-1-one]",20 to 100 µM,–,< 20 µM,–
"Cc1ncsc1C1=C(c2cccc(CN3CCOCC3)c2)C(=O)c2ccccc21 [Compound 89, 3-(4-methylthiazol-5-yl)-2-(3-(morpholinomethyl)phenyl)-1H-inden-1-one]",20 to 100 µM,–,100 to 250 µM,–
"Cc1ncsc1C1=C(C#N)C(=O)c2cc(OCCCc3ccccc3)ccc21 [Compound 34, 3-(4-methylthiazol-5-yl)-1-oxo-6-(3-phenylpropoxy)-1H-indene-2-carbonitrile]",> 250 µM,–,100 to 250 µM,–
"Cc1ncsc1C1=C(c2scnc2C)c2ccc(N3CCN(C)CC3)cc2C1=O [Compound 79, 6-(4-methylpiperazin-1-yl)-2,3-bis(4-methylthiazol-5-yl)-1H-inden-1-one]",20 to 100 µM,–,20 to 100 µM,–
"O=C1C(c2ccccc2)=C(c2cccc(N3CCOCC3)c2)c2ccccc21 [Compound 15, 3-(3-morpholinophenyl)-2-phenyl-1H-inden-1-one]",20 to 100 µM,–,> 250 µM,–
